This is an account of results in patent publication US11091447B2, “UBE2K modulators and methods for their use” (Berg LLC, priority 2020, dated 2021).

Each structure is given as a SMILES string.

In general, IC50 refers to the concentration that inhibits the measured activity by half. Read a high IC50 as a need for much substance.

Experiment [1] deals with MIA PaCa-2 cells. Kind of experiment: Cellular viability assay (Cell Titer Fluor). Type of experiment: cell-based. To be noted: Homo sapiens, MIA PaCa-2, 72 h, 72 hours incubation. The procedure:
Cell viability were performed using the Cell Titer Fluor™ Assays (Promega G6080). MIA PaCa-2 cells are grown in DMEM media with 10% FBS, 1% Pen/Strep/Amphotericin B. Cells are trypsinized and counted using the Nexcelom cellometer. 5,000 cells/100 μl are plated per well in Greiner black/clear 96-well plates. Cells should be within 10 passages of stock vial for use in workflow. Three distinct lineages of these cells are cultured in parallel for multiple passages and 5 full plates of each lineage are seeded for one run. Small molecule compounds are provided as 100 mM stock solutions in DMSO. Dilution series plates are prepared using 1:3 dilution to achieve a 7 point concentration on a half log scale. After addition of compounds, cells are incubated 37° C., 5% CO2 for 72 hours.
For each test compound condition, triplicate technical replicates are used. For each reference compound, duplicate technical replicates are used. At the end of the 72-hour incubation, spent media is discarded. Then, 100 μl of GF-AFC diluted in DMEM (serum and phenol red-free) is added at 1:2000 concentration (5 μl/10 ml). Cells are incubated with reaction buffer for 1 h at 37° C. Fluorescence is then read on the plate reader with excitation wavelength of 390 nm and emission wavelength of 505 nm. All raw data are analyzed on Microsoft Excel 2010 and normalized to the DMSO vehicle control. Relative results are copied into GraphPad Prism for non-linear regression analysis and determination of IC50 and other dose curve parameters (min, max, Hill slope, etc.) using the log (inhibitor) vs. response equation. Values are as follows: A represents an IC50 of <[…], B represents an IC50 of 1 mM to 10 mM, C represents an IC50 of >10 mM.

Experiment [2] relates to K-562 tumor grafts. Kind of experiment: Tumor growth inhibition in K-562 murine xenograft model. Type of experiment: in vivo, Mouse (Mus musculus). To be noted: bid., p.o., K-562 xenograft, SCID Bg mice. Here is the method: K-562 cancer cell line sourced from American Type Culture Collection (ATCC), USA. Cells were grown in IMDM medium (Sigma, Cat #30-2005) supplemented with 10% FBS (Invitrogen, Cat #10438-026), and 1% penicillin streptomycin (Invitrogen, Cat #15140-122). To establish xenograft, the cells were harvested by trypsinization when they reach around 70 to 80% confluence and 5 million K-562 cells were suspended in 200 μL of serum-free medium and mixed at 1:1 ratio with matrigel before implanting subcutaneously into the dorsal right flank of SCID Bg mice using a 1 mL BD syringe attached to a 24-gauge needle.
K-562 tumor grafts were measured after 10 days of cell inoculation once they became palpable. When the average tumor volume reached around 85 mm^3, animals were dosed after randomization into different treatment groups keeping tumor volume and number of animals in such a way so that the average tumor volume of each group remained same across the groups.
Compounds were formulated in 0.5% CMC+0.1% Tween 80 and given for 12 consecutive days BID with 8 hour gaps.

In experiment [3] the test system is MV.4.11 cell (B myelomonocytic leukemia) line derived xenograft. Kind of experiment: Anti-tumor efficacy in MV.4.11 cell line derived xenograft model. The class given is in vivo. To be noted: MV.4.11 xenograft, nude mice. The procedure:
Nude mice were implanted with 5×10^6 cells MV.4.11 cells subcutaneously in the right flank region. Mice were randomized into 3 groups (8 mice each) on day 12 post cells implantation. Vehicle control was administered with formulation of test compound and treatment group was administered with compound 131 at doses 75 and 150 mg/kg orally as a suspension in 0.1% Tween-80+0.5% CMC (carboxymethyl cellulose) twice daily (b.i.d) for 24 days. Tumor measurements and body weight were recorded thrice weekly during the study period till study completion (day 24).

In turn, `COc1ccccc1-c1nc(CNC(=O)c2ccccc2OC(F)F)n[nH]1` [Compound 126, 2-(difluoromethoxy)-N-((5-(2-methoxyphenyl)-1H-1,2,4-triazol-3-yl)methyl) benzamide] returned an IC50 in experiment [1] below 1000 nM. Further, in experiment [2] (75 mg/kg/dose), the “% Tumor Growth Inhibition (TGI) on day 3” value is 41%, the “% Tumor Growth Inhibition (TGI) on day 5” value was found to be 32%, the “% Tumor Growth Inhibition (TGI) on day 8” value was found to be 27% and the “% Tumor Growth Inhibition (TGI) on day 10” value was determined as 27%. The “% Tumor Growth Inhibition (TGI) on day 12” value in experiment [2] (75 mg/kg/dose) was found to be 36%. In addition, in experiment [2] (200 mg/kg/dose), the “% Tumor Growth Inhibition (TGI) on day 3” value was 55%, the “% Tumor Growth Inhibition (TGI) on day 5” value turned out to be 51%, the “% Tumor Growth Inhibition (TGI) on day 8” value was 51% and the “% Tumor Growth Inhibition (TGI) on day 10” value stood at 43%. Further, the “% Tumor Growth Inhibition (TGI) on day 12” value in experiment [2] (200 mg/kg/dose) is 44%.

In the case of `COc1ccc(F)cc1-c1nc(CNC(=O)c2cccc3c2OC(F)(F)O3)n[nH]1` [Compound 131], the tumor growth inhibition in experiment [3] (75 mg/kg orally twice daily (b.i.d) for 24 days) stood at 73.6%; in experiment [3] (150 mg/kg orally twice daily (b.i.d) for 24 days), 86.3%. The compound further returned an IC50 in experiment [1] below 1000 nM.

`COc1ccc(F)cc1-c1nc(CNC(=O)c2cc(F)ccc2OC(F)(F)F)n[nH]1` [Compound 133]: the IC50 in experiment [1] was below 1000 nM. In experiment [2] (25 mg/kg/dose), the “% Tumor Growth Inhibition (TGI) on day 3” value amounted to 43%, the “% Tumor Growth Inhibition (TGI) on day 5” value stood at 37%, the “% Tumor Growth Inhibition (TGI) on day 8” value stood at 48% and the “% Tumor Growth Inhibition (TGI) on day 10” value stood at 45%. Also, in experiment [2] (25 mg/kg/dose), the “% Tumor Growth Inhibition (TGI) on day 12” value was 43%. Besides, in experiment [2] (75 mg/kg/dose), the “% Tumor Growth Inhibition (TGI) on day 3” value is 47%, the “% Tumor Growth Inhibition (TGI) on day 5” value was 56%, the “% Tumor Growth Inhibition (TGI) on day 8” value is 61% and the “% Tumor Growth Inhibition (TGI) on day 10” value is reported as 60%. For the same compound, the “% Tumor Growth Inhibition (TGI) on day 12” value in experiment [2] (75 mg/kg/dose) is 64%.
